The record followed here is US9688684B2, “Substituted tetrazolo[1,5-a]pyrazines as ROR-gamma inhibitors” (Merck Patent GmbH, priority 2013, dated 2017).

pIC50: −log10 of the molar value.

Chain of human RORγ ligand binding domain (GST-hRORγ-LBD) (P51449 269-508): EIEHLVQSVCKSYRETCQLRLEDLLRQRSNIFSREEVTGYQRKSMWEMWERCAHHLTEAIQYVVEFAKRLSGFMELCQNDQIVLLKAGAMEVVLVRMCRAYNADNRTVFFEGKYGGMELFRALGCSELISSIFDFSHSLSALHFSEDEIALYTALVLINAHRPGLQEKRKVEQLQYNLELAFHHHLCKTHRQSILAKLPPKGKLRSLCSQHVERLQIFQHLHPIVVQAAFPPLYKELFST

The assay concerns the target human RORγ ligand binding domain (GST-hRORγ-LBD) (Homo sapiens (Human), UniProt P51449). Briefly: TR-FRET assay (biochemical cofactor interaction assay, GST-hRORγ-LBD / TRAP220 peptide). The text has this: RORγ is an orphan member of the nuclear receptor (NR) family displaying constitutive activity. The activity of nuclear receptors can be modulated by ligand-induced cofactor protein interactions. For example, agonist binding leads to recruitment of coactivator protein, and antagonist binding either blocks coactivator interaction or facilitates the recruitment of corepressors. […] The conformational change induced by ligand binding influences interactions with LXXLL motif peptides.
RORγ (t) is a thymus-specific isoform of RORγ which is widely expressed. It shares the same ligand binding domain (LBD) sequence with RORγ. Thus, a screen using the LBD will yield antagonists targeting both RORγ and RORγt.
In order to identify compounds which block activity of the human nuclear receptor Retinoid-related Orphan Receptor gamma (RORγ) a biochemical cofactor interaction assay based on the TR-FRET principle is performed. […] The ligand-binding domain (LBD) of RORγ is expressed as fusion protein with GST in […] cells using the vector pDEST15. Cells are lysed by lysozyme-treatment and sonication, and the fusion proteins purified over glutathione sepharose (Pharmacia) according to the manufacturers instructions. The strong constitutive interaction is disrupted upon binding of functional antagonists. The strength of the interaction is monitored by TR-FRET between streptavidine APC interacting with the biotinylated peptide and Europium-labelled Anti-GST.
(In general: In TR-FRET formats the signal depends on donor and acceptor labels being close together.)
In the case of “7-Benzyl-8-(4-ethyl-phenyl-1H-pyrazol-4-yl)-5,6,7,8-tetrahydro-tetrazolo[1,5-a]pyrazine [Compound 152]”, the pIC50 (in general, the negative decadic logarithm of the IC50, by convention in mol/L) is 4.40 to 5.00.
`Fc1ccc(CN2CCn3nnnc3C2c2cccc(F)c2)cc1` (single isomer, unassigned) [Compound 91-a, 7-(4-Fluoro-benzyl)-8-(3-fluoro-phenyl)-5,6,7,8-tetrahydro-tetrazolo[1,5-a]pyrazine] gave a pIC50 of 4.40 to 5.00.
To `Cc1cccc(CN2CCn3nnnc3C2c2ccc(F)cc2)c1` (single isomer, unassigned) [Compound 93-b, 8-(4-Fluoro-phenyl)-7-(3-methyl-benzyl)-5,6,7,8-tetrahydro-tetrazolo[1,5-a]pyrazine] belongs 4.40 to 5.00.
To `Fc1ccc(C2c3nnnn3CCN2Cc2cccc(Br)c2)cc1` (single isomer, unassigned) [Compound 96-b, 7-(3-Bromo-benzyl)-8-(4-fluoro-phenyl)-5,6,7,8-tetrahydro-tetrazolo[1,5-a]pyrazine] belongs 4.40 to 5.00.
For `COc1ccc(OC)c(CN2CCn3nnnc3C2c2ccc(OC(C)C)cc2)c1` (centres unmarked) [Compound 1, 7-(2,5-Dimethoxy-benzyl)-8-(4-isopropoxy-phenyl)-5,6,7,8-tetrahydro-tetrazolo[1,5-a]pyrazine] the value was 4.40 to 5.00.
Compound `CC(C)Oc1ccc(C2c3nnnn3CCN2CC2CCCCC2)cc1` (centres unmarked) [Compound 3, 7-Cyclohexylmethyl-8-(4-isopropoxy-phenyl)-5,6,7,8-tetra hydro-tetrazolo[1,5-a]pyrazine] showed a pIC50 of 4.40 to 5.00.
For `COc1ccc(C2c3nnnn3CCN2Cc2cn(-c3ccccc3)nc2C(C)C)cc1` (centres unmarked) [Compound 5, 7-(3-Isopropyl-1-phenyl-1H-pyrazol-4-ylmethyl)-8-(4-methoxy-phenyl)-5,6,7,8-tetrahydro-tetrazolo[1,5-a]pyrazine] the value was 4.40 to 5.00.
As to `Brc1cccc(CN2CCn3nnnc3C2c2cccc(Br)c2)c1` (centres unmarked) [Compound 6, 7-(3-Bromo-benzyl)-8-(3-bromo-phenyl)-5,6,7,8-tetrahydro-tetrazolo[1,5-a]pyrazine], the pIC50 was 4.40 to 5.00.
`Brc1cccc(C2c3nnnn3CCN2CC2CCCCC2)c1` (centres unmarked) [Compound 9, 8-(3-Bromo-phenyl)-7-cyclohexylmethyl-5,6,7,8-tetrahydro-tetrazolo[1,5-a]pyrazine]: the pIC50 is 4.40 to 5.00.
To `CC(C)c1nn(-c2ccccc2)cc1CN1CCn2nnnc2C1c1ccc(F)cc1` (centres unmarked) [Compound 11, 8-(4-Fluoro-phenyl)-7-(3-isopropyl-1-phenyl-1H-pyrazol-4-ylmethyl)-5,6,7,8-tetrahydro-tetrazolo[1,5-a]pyrazine] belongs 4.40 to 5.00; to `COc1ccc(OC)c(C2c3nnnn3CCN2Cc2cn(-c3ccccc3)nc2C(C)C)c1` (centres unmarked) [Compound 13, 8-(2,5-Dimethoxy-phenyl)-7-(3-isopropyl-1-phenyl-1H-pyrazol-4-ylmethyl)-5,6,7,8-tetrahydro-tetrazolo[1,5-a]pyrazine], 4.40 to 5.00.
For `CN(C)c1ccc(C2c3nnnn3CCN2Cc2cc(F)ccc2F)cc1` (centres unmarked) [Compound 16, {4-[7-(2,5-Difluoro-benzyl)-5,6,7,8-tetrahydro-tetrazolo[1,5-a]pyrazin-8-yl]-phenyl}-dimethyl-amine] the value was 4.40 to 5.00; for `CN(C)c1ccc(C2c3nnnn3CCN2CC2CCCCC2)cc1` (centres unmarked) [Compound 19, [4-(7-Cyclohexylmethyl-5,6,7,8-tetrahydro-tetrazolo[1,5-a]pyrazin-8-yl)-phenyl]-dimethyl-amine], 4.40 to 5.00.
To `CN(C)c1ccc(C2c3nnnn3CCN2Cc2cccc(F)c2F)cc1` (centres unmarked) [Compound 20, {4-[7-(2,3-Difluoro-benzyl)-5,6,7,8-tetrahydro-tetrazolo[1,5-a]pyrazin-8-yl]-phenyl}-dimethyl-amine] belongs 4.40 to 5.00; to `COc1ccc(CN2CCn3nnnc3C2c2ccccc2F)cc1` (centres unmarked) [Compound 22, 8-(2-Fluoro-phenyl)-7-(4-methoxy-benzyl)-5,6,7,8-tetrahydro-tetrazolo[1,5-a]pyrazine], 4.40 to 5.00.
For the compound `Cc1cccc(C2c3nnnn3CCN2Cc2cn(-c3ccccc3)nc2C(C)C)c1` (centres unmarked) [Compound 27, 7-(3-Isopropyl-1-phenyl-1H-pyrazol-4-ylmethyl)-8-m-tolyl-5,6,7,8-tetrahydro-tetrazolo[1,5-a]pyrazine], the pIC50 is 4.40 to 5.00.
`CC(C)c1nn(-c2ccccc2)cc1CN1CCn2nnnc2C1c1ccc2c(c1)OCO2` (centres unmarked) [Compound 29, 8-Benzo[1,3]dioxol-5-yl-7-(3-isopropyl-1-phenyl-1H-pyrazol-4-ylmethyl)-5,6,7,8-tetrahydro-tetrazolo[1,5-a]pyrazine] had a pIC50 of 4.40 to 5.00.
Compound `Fc1ccc(F)c(CN2CCn3nnnc3C2c2cc(F)ccc2F)c1` (centres unmarked) [Compound 32, 7-(2,5-Difluoro-benzyl)-8-(2,5-difluoro-phenyl)-5,6,7,8-tetrahydro-tetrazolo[1,5-a]pyrazine] had a pIC50 of 4.40 to 5.00.
To `Fc1ccc(F)c(C2c3nnnn3CCN2Cc2cccc(F)c2F)c1` (centres unmarked) [Compound 35, 7-(2,3-Difluoro-benzyl)-8-(2,5-difluoro-phenyl)-5,6,7,8-tetrahydro-tetrazolo[1,5-a]pyrazine] belongs 4.40 to 5.00; to `CCOc1ccc(C2c3nnnn3CCN2Cc2cn(-c3ccccc3)nc2C(C)C)cc1` (centres unmarked) [Compound 43, 8-(4-Ethoxy-phenyl)-7-(3-isopropyl-1-phenyl-1H-pyrazol-4-ylmethyl)-5,6,7,8-tetrahydro-tetrazolo[1,5-a]pyrazine], 4.40 to 5.00.
Regarding `CCOc1ccc(C2c3nnnn3CCN2CC2CCCCC2)cc1` (centres unmarked) [Compound 44, 7-Cyclohexylmethyl-8-(4-ethoxy-phenyl)-5,6,7,8-tetrahydro-tetrazolo[1,5-a]pyrazine], the pIC50 was 4.40 to 5.00.
`CCOc1ccc(C2c3nnnn3CCN2Cc2cccc(F)c2F)cc1` (centres unmarked) [Compound 45, 7-(2,3-Difluoro-benzyl)-8-(4-ethoxy-phenyl)-5,6,7,8-tetrahydro-tetrazolo[1,5-a]pyrazine] showed a pIC50 of 4.40 to 5.00.
In the case of `c1csc(CN2CCn3nnnc3C2c2cccs2)c1` (centres unmarked) [Compound 47, 8-Thiophen-2-yl-7-thiophen-2-ylmethyl-5,6,7,8-tetrahydro-tetrazolo[1,5-a]pyrazine], the pIC50 was 4.40 to 5.00.
To `Cc1cccc(CN2CCn3nnnc3C2c2cn(-c3ccccc3)nc2C(C)C)c1` (centres unmarked) [Compound 57, 8-(3-Isopropyl-1-phenyl-1H-pyrazol-4-yl)-7-(3-methyl-benzyl)-5,6,7,8-tetrahydro-tetrazolo[1,5-a]pyrazine] belongs 4.40 to 5.00; to `CC(C)c1nn(-c2ccccc2)cc1CN1CCn2nnnc2C1c1cn(-c2ccccc2)nc1C(C)C` (centres unmarked) [Compound 62, 8-(3-Isopropyl-1-phenyl-1H-pyrazol-4-yl)-7-(3-isopropyl-1-phenyl-1H-pyrazol-4-ylmethyl)-5,6,7,8-tetrahydro-tetrazolo[1,5-a]pyrazine], 4.40 to 5.00.
In turn, `CC(C)Oc1ccc(CN2CCn3nnnc3C2C2CCCCC2)cc1` (centres unmarked) [Compound 64, 8-Cyclohexyl-7-(4-isopropoxy-benzyl)-5,6,7,8-tetrahydro-tetrazolo[1,5-a]pyrazine] gave a negative-log IC50 (pIC50) of 4.40 to 5.00.
`CN(C)c1ccc(CN2CCn3nnnc3C2C2CCCCC2)cc1` (centres unmarked) [Compound 66, [4-(8-Cyclohexyl-5,6-dihydro-8H-tetrazolo[1,5-a]pyrazin-7-ylmethyl)-phenyl]-dimethyl-amine] gave a pIC50 of 4.40 to 5.00.
In turn, `CCOc1ccc(CN2CCn3nnnc3C2C2CCCCC2)cc1` (centres unmarked) [Compound 67, 8-Cyclohexyl-7-(4-ethoxy-benzyl)-5,6,7,8-tetrahydro-tetrazolo[1,5-a]pyrazine] gave a pIC50 of 4.40 to 5.00.
In turn, `C1CCC(CN2CCn3nnnc3C2C2CCCCC2)CC1` (centres unmarked) [Compound 69, 8-Cyclohexyl-7-cyclohexylmethyl-5,6,7,8-tetrahydro-tetrazolo[1,5-a]pyrazine] showed a pIC50 of 4.40 to 5.00.
On to `Fc1ccc(F)c(CN2CCn3nnnc3C2c2cccc(F)c2F)c1` (centres unmarked) [Compound 74, 7-(2,5-Difluoro-benzyl)-8-(2,3-difluoro-phenyl)-5,6,7,8-tetrahydro-tetrazolo[1,5-a]pyrazine], for which the pIC50 was 4.40 to 5.00.
To `Fc1cccc(CN2CCn3nnnc3C2c2cccc(F)c2F)c1F` (centres unmarked) [Compound 79, 7-(2,3-Difluoro-benzyl)-8-(2,3-difluoro-phenyl)-5,6,7,8-tetrahydro-tetrazolo[1,5-a]pyrazine] belongs 4.40 to 5.00; to `O=C(c1cccc(Br)c1)N1CCn2nnnc2C1c1cccc(F)c1` (centres unmarked) [Compound 82, (3-Bromo-phenyl)-[8-(3-fluoro-phenyl)-5,6-dihydro-8H-tetrazolo[1,5-a]pyrazin-7-yl]-methanone], 4.40 to 5.00.
To `Cn1ccc(CN2CCn3nnnc3C2c2ccc(F)cc2)n1` (centres unmarked) [Compound 85, 8-(4-Fluoro-phenyl)-7-(1-methyl-1H-pyrazol-3-ylmethyl)-5,6,7,8-tetrahydro-tetrazolo[1,5-a]pyrazine] belongs 4.40 to 5.00; to `Cc1cccc(CN2CCn3nnnc3C2c2ccccn2)c1` (centres unmarked) [Compound 86, 7-(3-Methyl-benzyl)-8-pyridin-2-yl-5,6,7,8-tetrahydro-tetrazolo[1,5-a]pyrazine], 4.40 to 5.00.
The compound `Cc1cccc(CN2CCn3nnnc3C2c2ccncc2)c1` (centres unmarked) [Compound 87, 7-(3-Methyl-benzyl)-8-pyridin-4-yl-5,6,7,8-tetrahydro-tetrazolo[1,5-a]pyrazine] had a pIC50 of 4.40 to 5.00.
